PubChem BioAssay AID624432 (The Scripps Research Institute Molecular Screening Center, 2012)
Activity calls are given as the source filed them.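 How the source made its calls: active means compounds whose fitted IC50 is below 25 µM; inactive means the rest.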

Target: Serine/threonine-protein phosphatase 5 (Homo sapiens) (UniProt P53041)
Experiment: IC50 of PP5 catalytic subunit inhibitors – biochemical, fluorescence, powder samples, fifth round, dose response (AID 624432)
Conditions: purified PP5c, OMFP dephosphorylation

Serine/threonine-protein phosphatase 5 (Homo sapiens), sequence (P53041 whole entry, looked up): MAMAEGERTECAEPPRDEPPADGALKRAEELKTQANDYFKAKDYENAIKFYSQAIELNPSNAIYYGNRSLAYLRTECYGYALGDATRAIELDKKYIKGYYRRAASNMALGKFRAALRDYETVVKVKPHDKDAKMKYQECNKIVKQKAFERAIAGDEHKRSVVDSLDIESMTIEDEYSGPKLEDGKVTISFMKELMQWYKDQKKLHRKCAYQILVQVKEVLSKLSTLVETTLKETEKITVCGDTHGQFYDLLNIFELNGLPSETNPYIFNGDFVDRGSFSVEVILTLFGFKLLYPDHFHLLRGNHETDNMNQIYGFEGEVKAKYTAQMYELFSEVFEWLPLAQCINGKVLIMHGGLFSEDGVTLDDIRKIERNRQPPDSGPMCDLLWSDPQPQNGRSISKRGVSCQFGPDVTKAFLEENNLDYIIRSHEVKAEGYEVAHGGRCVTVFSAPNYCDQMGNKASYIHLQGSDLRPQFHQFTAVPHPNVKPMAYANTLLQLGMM

Row | IC50 | SMILES
1 | inactive | Cc1cccc(C)c1-c1n[nH]nc1C(=O)O
2 | > 1000 µM (inactive) | O=C(O)c1n[nH]nc1-c1ccccc1C(F)(F)F
